According to patent publication US7816390B2, “N-substituted tricyclic 3-aminopyrazoles as anti-mitotic tubulin polymerization inhibitors” (Janssen Pharmaceutica NV, priority 2008, dated 2010):
Several values for one entry are separate records, joined by “and”; a condition that tells them apart may be missing. Identical values can stand only once. Like-named read-outs stand apart in the source and are kept apart here. Values belong to the molecule of their own block, whether it stands above or below them.

Tests used:
[1] = system: human tumor cell lines (AsPC-1, H460, PC3, T45D, A375, LoVo); assay: Tumor cell proliferation assay (14C-thymidine incorporation); assay type: cell-based
Method: (§1) The compound N-(3-ethoxyphenyl)-1,4-dihydro-6-ethoxy-7-(3-hydroxypropoxy)-1-methylindeno[1,2-c]pyrazole-3-amine was evaluated for direct effects on the growth of several human tumor cell lines derived from human cancers of varying origin (HeLa, cervical, H460 lung, LoVo colon, LnCAP and PC3 prostate lines, T47D breast, A375 melanoma, AsPC1 pancreatic and U87MG glioblastoma) and on the proliferation of normal human umbilical vein endothelial cells (HUVEC). Colchicine, nocodazole, doxorubicin and paclitaxel were evaluated as comparators.
(§2) Methods: Tumor cell anti-proliferative activity was assessed using standard in vitro cell proliferation assays in which the IC50 for inhibition of cell proliferation by a compound was measured using ^14C-thymidine incorporation into cellular DNA. Briefly, cells were plated into 96-well microplates and allowed to adhere overnight. Compound was added the next day and cells were incubated for an additional 24 hours. [^14C]-thymidine was allowed to incorporate into cellular DNA for 24 hours after which the plate was washed and counted in a scintillation counter.

bovine tubulin = assay: In vitro tubulin polymerization assay (CytoDYNAMIX Screen 03); assay type: biochemical; conditions: for effect on tubulin polymerization curve (Vmax): 10 μM; for IC50: 3 mg/mL bovine tubulin, absorbance at 340 nm, relative to Vmax of DMSO controls, read-out: IC50 for inhibition of tubulin polymerization
Method: Compounds were assayed in vitro for effects on tubulin polymerization using a commercially available assay kit from Cytoskeleton (CytoDYNAMIX Screen 03).
Methods: Briefly, this assay is based on the observation that light scattered by microtubules is proportional to the concentration of microtubule polymer. The standard polymerization reaction contains 100 μL volume of tubulin solution consisting of 3 mg/mL bovine tubulin in 80 mM PIPES pH 6.9, 0.5 mM EGTA, 2 mM MgCl2, 1 mM GTP and 10% glycerol. The tubulin solution (100 μL/well) is added rapidly to wells of a 96-well plate containing duplicate aliquots (10 μL) of experimental compounds in DMSO to achieve a final well concentration of 1.0 and 10 μM in a preliminary screening assay. Control wells contain the same final concentration of DMSO (<0.5%). Following initiation of the polymerization reaction by incubation at 37° C., absorbance at 340 nm is measured every minute for 60 minutes using a SpectraMax plate reader. […] Inhibition of tubulin polymerization by experimental compounds is calculated relative to the Vmax of the DMSO controls. A more detailed description of assay conditions and assay optimization can be found in the Assay Kit Instructions. The resulting polymerization curve (OD vs. Time in sec) is represented by three phases of microtubule polymerization, including nucleation (Phase I), microtubule growth (Phase II) and finally, steady-state equilibrium (Phase III). Compounds that interact (bind) with tubulin alter one or more of these characteristic phases of tubulin polymerization.

[2] = system: tubulin (colchicine binding site); assay: ThermoFluor binding assay
[3] = system: human umbilical vein endothelial cells (HUVEC); assay: HUVEC proliferation assay (14C-thymidine incorporation); assay type: cell-based
Method: as §1, §2

[4] = system: tubulin (colchicine binding site); assay: Radiolabeled [3H]-colchicine competition SPA assay

SMILES: CC(=O)O[C@H]1C(=O)[C@@]2(C)[C@H]([C@H](OC(=O)c3ccccc3)[C@]3(O)C[C@H](OC(=O)[C@H](O)[C@@H](NC(=O)c4ccccc4)c4ccccc4)C(C)=C1C3(C)C)[C@]1(OC(C)=O)CO[C@@H]1C[C@@H]2O [paclitaxel]
anti-proliferative potency ([1]; H460 lung, T47D breast, PC3 prostate and LoVo colon lines): sub-nM potency | effect on tubulin (bovine tubulin): stabilization of tubulin | effect on tubulin polymerization curve (Vmax) (bovine tubulin): dramatic enhancement of the Vmax of the growth phase

SMILES: COC(=O)Nc1nc2ccc(C(=O)c3cccs3)cc2[nH]1 [nocodazole]
effect on tubulin polymerization curve (Vmax) (bovine tubulin): significant decrease in the Vmax | IC50 (bovine tubulin): 1500 nM

IC50 ([1]; range over 6 of 6 human tumor cell lines (AsPC-1, H460, PC3, T45D, A375, LoVo), read-out: IC50 for inhibition of tumor cell proliferation): 2 to 10 nM | IC50 (bovine tubulin): 2400 nM and 2400 to 3700 nM
SMILES: CCOc1cccc(Nc2nn(C)c3c2Cc2cc(OCC)c(OCCCO)cc2-3)c1 [N-(3-ethoxyphenyl)-1,4-dihydro-6-ethoxy-7-(3-hydroxypropoxy)-1-methylindeno[1,2-c]pyrazole-3-amine]
binding at the colchicine binding site [2]: binding of this compound at the colchicine binding site was also demonstrated | fold less potent compared to paclitaxel ([1]; depending on the cell line examined): approximately 10 fold | IC50 ([3]; read-out: IC50 for inhibition of LSGS-stimulated HUVEC growth): < 0.01 µM | IC50 ([3]; read-out: IC50 versus confluent, non-proliferating HUVEC cells): > 10 µM | competition with [3H]-colchicine binding [4]: competed with [^3H]-colchicine binding in a manner similar to unlabeled colchicine

competition with [3H]-colchicine binding [4]: no significant competition
SMILES: CC[C@]1(O)C[C@@H]2CN(CCc3c([nH]c4ccccc34)[C@@](C(=O)OC)(c3cc4c(cc3OC)N(C)[C@H]3[C@@](O)(C(=O)OC)[C@H](OC(C)=O)[C@]5(CC)C=CCN6CC[C@]43[C@@H]65)C2)C1 [vinblastine, reference compound]
